According to PubChem BioAssay (NCI):
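All cell lines were grown in 96-well plates and treated with compound for 48 hours. The concentration for 50% growth inhibition is given as GI50. TGI: total growth inhibition.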

How the values were obtained:
Test in all cases: inhibition of tumour cell growth, NCI panel, 48 h
786-0 renal = test system: 786-0 renal
A498 renal = test system: A498 renal
A549 NSCLC = test system: A549 NSCLC
ACHN renal = test system: ACHN renal
BT-549 breast = test system: BT-549 breast
CAKI-1 renal = test system: CAKI-1 renal
CCRF-CEM leukemia = test system: CCRF-CEM leukemia
COLO 205 colon = test system: COLO 205 colon
DU-145 prostate = test system: DU-145 prostate
EKVX NSCLC = test system: EKVX NSCLC
HCC-2998 colon = test system: HCC-2998 colon
HCT-116 colon = test system: HCT-116 colon
HCT-15 colon = test system: HCT-15 colon
HL-60(TB) leukemia = test system: HL-60(TB) leukemia
HOP-62 NSCLC = test system: HOP-62 NSCLC
HOP-92 NSCLC = test system: HOP-92 NSCLC
HS 578T breast = test system: HS 578T breast
HT29 colon = test system: HT29 colon
IGROV1 ovarian = test system: IGROV1 ovarian
KM12 colon = test system: KM12 colon
LOX IMVI melanoma = test system: LOX IMVI melanoma
M14 melanoma = test system: M14 melanoma
MALME-3M melanoma = test system: MALME-3M melanoma
MCF7 breast = test system: MCF7 breast
MDA-MB-231 breast = test system: MDA-MB-231 breast
MDA-MB-435 = test system: MDA-MB-435
NCI-H226 lung = test system: NCI-H226 lung
NCI-H23 lung = test system: NCI-H23 lung
NCI-H460 lung = test system: NCI-H460 lung
NCI-H522 lung = test system: NCI-H522 lung
NCI/ADR-RES ovarian = test system: NCI/ADR-RES ovarian
OVCAR-3 ovarian = test system: OVCAR-3 ovarian
OVCAR-4 ovarian = test system: OVCAR-4 ovarian
OVCAR-5 ovarian = test system: OVCAR-5 ovarian
OVCAR-8 ovarian = test system: OVCAR-8 ovarian
PC-3 prostate = test system: PC-3 prostate
RPMI-8226 leukemia = test system: RPMI-8226 leukemia
RXF 393 renal = test system: RXF 393 renal
SF-268 CNS = test system: SF-268 CNS
SF-295 CNS = test system: SF-295 CNS
SF-539 CNS = test system: SF-539 CNS
SK-MEL-2 melanoma = test system: SK-MEL-2 melanoma
SK-MEL-28 melanoma = test system: SK-MEL-28 melanoma
SK-MEL-5 melanoma = test system: SK-MEL-5 melanoma
SK-OV-3 ovarian = test system: SK-OV-3 ovarian
SN12C renal = test system: SN12C renal
SNB-19 CNS = test system: SNB-19 CNS
SNB-75 CNS = test system: SNB-75 CNS
SW-620 colon = test system: SW-620 colon
T-47D breast = test system: T-47D breast
TK-10 renal = test system: TK-10 renal
U251 CNS = test system: U251 CNS
UACC-257 melanoma = test system: UACC-257 melanoma
UACC-62 melanoma = test system: UACC-62 melanoma
UO-31 renal = test system: UO-31 renal

O=C(CC1(O)C(=O)N(Cc2ccccc2)c2ccc(F)cc21)c1ccc(C(=O)NCC2CCC3(CC2)OOC2(CCCCC2)OO3)cc1 (stereo not given)
GI50 (786-0 renal): 180 nM | TGI (786-0 renal): 344 nM | GI50 (A498 renal): 1690 nM | TGI (A498 renal): 3880 nM | GI50 (A549 NSCLC): 207 nM | TGI (A549 NSCLC): 441 nM | GI50 (ACHN renal): 179 nM | TGI (ACHN renal): 363 nM | GI50 (BT-549 breast): 1880 nM | TGI (BT-549 breast): 4280 nM | GI50 (CAKI-1 renal): 464 nM | TGI (CAKI-1 renal): 954 nM | GI50 (CCRF-CEM leukemia): 274 nM | TGI (CCRF-CEM leukemia): 924 nM | GI50 (COLO 205 colon): 728 nM | TGI (COLO 205 colon): 2020 nM | GI50 (DU-145 prostate): 187 nM | TGI (DU-145 prostate): 335 nM | GI50 (EKVX NSCLC): 412 nM | TGI (EKVX NSCLC): 1250 nM | GI50 (HCC-2998 colon): 1840 nM | TGI (HCC-2998 colon): 3920 nM | GI50 (HCT-116 colon): 1360 nM | TGI (HCT-116 colon): 3290 nM | GI50 (HCT-15 colon): 867 nM | TGI (HCT-15 colon): 3200 nM | GI50 (HL-60(TB) leukemia): 349 nM | TGI (HL-60(TB) leukemia): 999 nM | GI50 (HOP-62 NSCLC): 179 nM | TGI (HOP-62 NSCLC): 382 nM | GI50 (HOP-92 NSCLC): 186 nM | TGI (HOP-92 NSCLC): 378 nM | GI50 (HS 578T breast): 1920 nM | TGI (HS 578T breast): 6080 nM | GI50 (HT29 colon): 362 nM | TGI (HT29 colon): 1280 nM | GI50 (IGROV1 ovarian): 236 nM | TGI (IGROV1 ovarian): 620 nM | GI50 (KM12 colon): 338 nM | TGI (KM12 colon): 1190 nM | GI50 (LOX IMVI melanoma): 77.1 nM | TGI (LOX IMVI melanoma): 222 nM | GI50 (M14 melanoma): 2020 nM | TGI (M14 melanoma): 6630 nM | GI50 (MALME-3M melanoma): 226 nM | TGI (MALME-3M melanoma): 540 nM | GI50 (MCF7 breast): 1920 nM | TGI (MCF7 breast): > 31900 nM | GI50 (MDA-MB-231 breast): 423 nM | TGI (MDA-MB-231 breast): 1680 nM | GI50 (MDA-MB-435): 468 nM | TGI (MDA-MB-435): 1420 nM | GI50 (NCI-H226 lung): 1100 nM | TGI (NCI-H226 lung): 4190 nM | GI50 (NCI-H23 lung): 246 nM | TGI (NCI-H23 lung): 634 nM | GI50 (NCI-H460 lung): 210 nM | TGI (NCI-H460 lung): 487 nM | GI50 (NCI-H522 lung): 187 nM | TGI (NCI-H522 lung): 396 nM | GI50 (NCI/ADR-RES ovarian): 373 nM | TGI (NCI/ADR-RES ovarian): 1140 nM | GI50 (OVCAR-3 ovarian): 254 nM | TGI (OVCAR-3 ovarian): 634 nM | GI50 (OVCAR-4 ovarian): 1810 nM | TGI (OVCAR-4 ovarian): 4620 nM | GI50 (OVCAR-5 ovarian): 1170 nM | TGI (OVCAR-5 ovarian): 4890 nM | GI50 (OVCAR-8 ovarian): 267 nM | TGI (OVCAR-8 ovarian): 723 nM | GI50 (PC-3 prostate): 990 nM | TGI (PC-3 prostate): 3210 nM | GI50 (RPMI-8226 leukemia): 365 nM | TGI (RPMI-8226 leukemia): 1920 nM | GI50 (RXF 393 renal): 317 nM | TGI (RXF 393 renal): 851 nM | GI50 (SF-268 CNS): 1310 nM | TGI (SF-268 CNS): 3220 nM | GI50 (SF-295 CNS): 654 nM | TGI (SF-295 CNS): 1690 nM | GI50 (SF-539 CNS): 210 nM | TGI (SF-539 CNS): 541 nM | GI50 (SK-MEL-2 melanoma): 2000 nM | TGI (SK-MEL-2 melanoma): 4130 nM | GI50 (SK-MEL-28 melanoma): 4380 nM | TGI (SK-MEL-28 melanoma): > 84700 nM | GI50 (SK-MEL-5 melanoma): 1540 nM | TGI (SK-MEL-5 melanoma): 2960 nM | GI50 (SK-OV-3 ovarian): 2900 nM | TGI (SK-OV-3 ovarian): > 24000 nM | GI50 (SN12C renal): 1730 nM | TGI (SN12C renal): 3740 nM | GI50 (SNB-19 CNS): 3440 nM | TGI (SNB-19 CNS): 43500 nM | GI50 (SNB-75 CNS): 1480 nM | TGI (SNB-75 CNS): 3190 nM | GI50 (SW-620 colon): 1840 nM | TGI (SW-620 colon): 4300 nM | GI50 (T-47D breast): 843 nM | TGI (T-47D breast): 3110 nM | GI50 (TK-10 renal): 191 nM | TGI (TK-10 renal): 413 nM | GI50 (U251 CNS): 251 nM | TGI (U251 CNS): 674 nM | GI50 (UACC-257 melanoma): 4780 nM | TGI (UACC-257 melanoma): 31700 nM | GI50 (UACC-62 melanoma): 2180 nM | TGI (UACC-62 melanoma): 5610 nM | GI50 (UO-31 renal): 180 nM | TGI (UO-31 renal): 352 nM
